# Tests used:
# [1] = test system: SK-N-SH; assay: Cytotoxicity against human SKNSH cells; type: functional; details: read-out: ED50 (the source's name)
# [2] = test system: KB; assay: Cytotoxicity against human KB cells; type: functional; details: read-out: ED50 (the source's name)
# [3] = test system: SW626; assay: Cytotoxicity against human SW626 cells; type: functional; details: read-out: ED50 (the source's name)
# [4] = test system: Lu1; assay: Cytotoxicity against human Lu1 cells; type: functional; details: read-out: ED50 (the source's name)
# [5] = test system: KB; assay: Cytotoxicity against drug-resistant human KB cells in absence of vinblastine; type: functional; details: read-out: ED50 (the source's name)
# [6] = test system: Col2; assay: Cytotoxicity against human Col2 cells; type: functional; details: read-out: ED50 (the source's name)
# [7] = test system: LNCaP; assay: Cytotoxicity against human LNCaP cells; type: functional; details: read-out: ED50 (the source's name)
# [8] = test system: KB; assay: Cytotoxicity against drug-resistant human KB cells in presence of vinblastine; type: functional; details: read-out: ED50 (the source's name)
# [9] = Cytotoxicity against human BC1 cells; type: functional; details: read-out: ED50 (the source's name)
# [10] = Cytotoxicity against human MEL2 cells; type: functional; details: read-out: ED50 (the source's name)
# [11] = Cytotoxicity against human MEL1 cells; type: functional; details: read-out: ED50 (the source's name)
# [12] = Cytotoxicity against HUVEC cells; type: cell-based; details: human, read-out: ED50 (the source's name)
# [13] = test system: MCF7; assay: Cytotoxicity against human MCF7 cells; type: functional; details: read-out: ED50 (the source's name)
# [14] = test system: L1210; assay: Cytotoxicity against mouse L1210 cells; type: functional
smiles,measurement,setting,value
C[C@H]1C(=O)CC[C@H]2[C@]3(C)CC[C@@]4(C)[C@@H]5CC(C)(C)CC[C@]5(CO)CC[C@]4(C)[C@H]3C[C@@H](O)[C@]12C,EC50,[1],13 µg/mL
same,EC50,[2],> 20 µg/mL
same,EC50,[3],> 20 µg/mL
same,EC50,[4],> 20 µg/mL
same,EC50,[5],> 20 µg/mL
same,EC50,[6],> 20 µg/mL
same,EC50,[7],> 20 µg/mL
same,EC50,[8],> 20 µg/mL
same,EC50,[9],> 20 µg/mL
C=C(C)[C@@H]1CC[C@]2(C(=O)O)CC[C@]3(C)[C@H](CC[C@@H]4[C@@]5(C)CC[C@H](O)C(C)(C)[C@@H]5CC[C@]43C)[C@@H]12 [BETULINIC ACID],EC50,[1],> 20 µg/mL
same,EC50,[2],> 20 µg/mL
same,EC50,[3],> 20 µg/mL
same,EC50,[10],2 µg/mL
same,EC50,[4],> 20 µg/mL
same,EC50,[11],1.1 µg/mL
same,EC50,[5],> 20 µg/mL
same,EC50,[6],> 20 µg/mL
same,EC50,[7],> 20 µg/mL
same,EC50,[8],> 20 µg/mL
same,EC50,[9],> 20 µg/mL
COc1ccc([C@@H]2CC3=CC[C@]4(C)[C@H]5C=C[C@]67C[C@]6(CC[C@H]7[C@@H]6C[C@H](/C=C(\C)CO)OC6=O)[C@]5(C)[C@H](O)C[C@H]4[C@@]3(C)CO2)cc1 [DICHAPETALIN K],CC50,[12],2.2 µg/mL
same,EC50,[3],3 µg/mL
same,EC50,[4],1 µg/mL
same,EC50,[13],1 µg/mL
same,EC50,[7],2.6 µg/mL
C[C@H]1C(=O)CC[C@H]2[C@]3(C)CC[C@@]4(C)[C@@H]5CC(C)(C)CC[C@]5(C)CC[C@]4(C)[C@H]3C[C@@H](O)[C@]12C [ZEYLANOL],EC50,[1],16.8 µg/mL
same,EC50,[2],> 20 µg/mL
same,EC50,[3],> 20 µg/mL
same,EC50,[4],10.9 µg/mL
same,EC50,[5],> 20 µg/mL
same,EC50,[6],> 20 µg/mL
same,EC50,[8],> 20 µg/mL
same,EC50,[9],> 20 µg/mL
C/C(=C\[C@H]1C[C@@H]([C@@H]2CC[C@]34C[C@]23[C@H](O)C[C@@H]2[C@@]3(C)CC=C5C[C@@H](c6ccccc6)OC[C@]5(C)[C@@H]3C[C@@H](O)[C@]24C)C(=O)O1)CO [DICHAPETALIN I],EC50,[1],9.9 µg/mL
same,EC50,[2],16.6 µg/mL
same,EC50,[3],0.5 µg/mL
same,EC50,[4],7.6 µg/mL
same,EC50,[5],> 20 µg/mL
same,EC50,[6],4.1 µg/mL
same,EC50,[7],> 20 µg/mL
same,EC50,[8],> 20 µg/mL
same,EC50,[9],> 20 µg/mL
COc1ccc([C@@H]2CC3=CC[C@]4(C)[C@H]5C[C@@H](O)[C@]67C[C@]6(CC[C@H]7[C@@H]6C[C@H](/C=C(\C)CO)OC6=O)[C@]5(C)[C@H](O)C[C@H]4[C@@]3(C)CO2)cc1 [DICHAPETALIN J],EC50,[1],4 µg/mL
same,EC50,[2],16.4 µg/mL
same,EC50,[3],0.4 µg/mL
same,EC50,[4],14.5 µg/mL
same,EC50,[5],> 20 µg/mL
same,EC50,[6],2.1 µg/mL
same,EC50,[7],16.4 µg/mL
same,EC50,[8],> 20 µg/mL
same,EC50,[9],> 20 µg/mL
C/C(=C\[C@H]1C[C@@H]([C@@H]2CC[C@]34C[C@]23CC[C@@H]2[C@@]3(C)CC=C5C[C@@H](c6ccccc6)OC[C@]5(C)[C@@H]3C[C@@H](O)[C@]24C)C(=O)O1)CO [DICHAPETALIN L],CC50,[12],4.2 µg/mL
same,EC50,[3],8.3 µg/mL
same,EC50,[4],1 µg/mL
same,EC50,[13],2.1 µg/mL
same,EC50,[7],1.1 µg/mL
C=C1C(=O)C(O)=C[C@@H]2[C@@]3(C)CC[C@](C)(C(=O)OC)C[C@@H]3CC[C@]12C,EC50,[1],0.8 µg/mL
same,EC50,[2],0.7 µg/mL
same,EC50,[3],1.6 µg/mL
same,EC50,[4],1.6 µg/mL
same,EC50,[5],1.8 µg/mL
same,EC50,[6],0.8 µg/mL
same,EC50,[7],0.9 µg/mL
same,EC50,[8],1.7 µg/mL
same,EC50,[9],0.6 µg/mL
C=C1C(=O)C(O)=C[C@@H]2[C@@]3(C)CC[C@](C)(C(=O)O)C[C@@H]3CC[C@]12C,EC50,[1],9 µg/mL
same,EC50,[2],3.7 µg/mL
same,EC50,[3],5 µg/mL
same,EC50,[4],3.8 µg/mL
same,EC50,[5],5 µg/mL
same,EC50,[6],2.7 µg/mL
same,EC50,[7],3.7 µg/mL
same,EC50,[8],4.3 µg/mL
same,EC50,[9],4 µg/mL
CC1=C(O)C(=O)C[C@@H]2[C@@]3(C)CC[C@](C)(C(=O)O)C[C@@H]3CC[C@]12C,EC50,[1],10.4 µg/mL
same,EC50,[2],16.2 µg/mL
same,EC50,[3],15.8 µg/mL
same,EC50,[4],> 20 µg/mL
same,EC50,[5],> 20 µg/mL
same,EC50,[6],11.2 µg/mL
same,EC50,[7],10.8 µg/mL
same,EC50,[8],> 20 µg/mL
same,EC50,[9],12.2 µg/mL
C/C(=C\[C@H]1C[C@@H]([C@@H]2CC[C@]34C[C@]23C=C[C@@H]2[C@@]3(C)CC=C5C[C@@H](c6ccccc6)OC[C@]5(C)[C@@H]3C[C@@H](O)[C@]24C)C(=O)O1)CO [DICHAPETALIN A],EC50,[1],6.9 µg/mL
same,CC50,[12],5.5 µg/mL
same,EC50,[2],3.6 µg/mL
same,EC50,[3],0.2 µg/mL
same,EC90,[14],< 0.0001 µg/mL
same,EC50,[4],4.1 µg/mL
same,EC50,[5],> 20 µg/mL
same,EC50,[6],6.1 µg/mL
same,EC50,[13],2.1 µg/mL
same,EC50,[7],7 µg/mL
same,EC50,[8],11.6 µg/mL
same,EC50,[9],> 20 µg/mL

# Source: ChEMBL document CHEMBL1157282, “Cytotoxic constituents from the stem bark of Dichapetalum gelonioides collected in the Philippines” (J Nat Prod, 2006)
